In PubChem BioAssay AID248 (DTP/NCI, 2004):
Where “and” joins values, the source holds several entries; their conditions need not be identical. Equal values may be shown once. Toxic doses and inconclusive results are not listed.

Tested on: L1210 leukemia ip in BDF1 mice, survival T/C
Assay: NCI In Vivo Anticancer Drug Screen. Data for tumor model L1210 Leukemia (intraperitoneal) in B6D2F1 (BDF1) mice
Settings: endpoint: mean survival time, higher = longer survival
In short: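 Transplantable tumor model; survival measured in treated vs vehicle control mice. Value = treated/control.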

[1] = dose: 100.0 mg/kg/injection, schedule: Q04DX003 (ip), vehicle: saline with Tween-80
[2] = dose: 200.0 mg/kg/injection, schedule: Q04DX003 (ip), vehicle: saline with Tween-80
[3] = dose: 400.0 mg/kg/injection, schedule: Q04DX003 (ip), vehicle: saline with Tween-80
[4] = dose: 100.0 mg/kg/injection, schedule: Q01DX009 (ip), vehicle: saline
[5] = dose: 100.0 mg/kg/injection, schedule: Q04DX003 (ip), vehicle: saline
[6] = dose: 200.0 mg/kg/injection, schedule: Q01DX009 (ip), vehicle: saline
[7] = dose: 200.0 mg/kg/injection, schedule: Q04DX003 (ip), vehicle: saline
[8] = dose: 50.0 mg/kg/injection, schedule: Q01DX009 (ip), vehicle: Klucel (hydroxypropylcellulose) (HPC)
[9] = dose: 100.0 mg/kg/injection, schedule: Q01DX009 (ip), vehicle: Klucel (hydroxypropylcellulose) (HPC)
[10] = dose: 200.0 mg/kg/injection, schedule: Q01DX009 (ip), vehicle: Klucel (hydroxypropylcellulose) (HPC)
[11] = dose: 400.0 mg/kg/injection, schedule: Q01DX009 (ip), vehicle: Klucel (hydroxypropylcellulose) (HPC)
[12] = dose: 100.0 mg/kg/injection, schedule: Q01DX001 (ip), vehicle: saline
[13] = dose: 400.0 mg/kg/injection, schedule: Q01DX009 (ip), vehicle: saline

In the case of OCC1OC(n2cnc3c2NC=NC[C@H]3O)CC1O (stereo partly specified), the T/C (dose: 0.13 mg/kg/injection, schedule: Q01DX005 (ip), vehicle: water) is reported as 100 % of control, the T/C (dose: 0.13 mg/kg/injection, schedule: Q01DX009 (ip), vehicle: water) is reported as 104 % of control and the T/C (dose: 0.25 mg/kg/injection, schedule: Q01DX005 (ip), vehicle: water) is reported as 105 % of control. For the same compound, the T/C (dose: 0.25 mg/kg/injection, schedule: Q01DX009 (ip), vehicle: water) was 101 % of control, the T/C (dose: 0.25 mg/kg/injection, schedule: Q04DX002 (ip), vehicle: water) was 98 % of control and the T/C (dose: 0.25 mg/kg/injection, schedule: Q04DX003 (ip), vehicle: water) was 98 % of control. For the same compound, the T/C (dose: 0.5 mg/kg/injection, schedule: Q04DX002 (ip), vehicle: water) was 95 % of control and the T/C (dose: 0.5 mg/kg/injection, schedule: Q04DX003 (ip), vehicle: water) was 106 % of control.
For N#Cc1oc2ccccc2c1OC(=O)C(F)(F)F, the T/C [1] was 100 % of control and the T/C [2] was 95 % of control.
In the case of CN(C)c1ccc(/C=C(\C#N)c2ccc([N+](=O)[O-])cc2)c(Cl)c1, the T/C [1] is reported as 91 % of control, the T/C [2] is reported as 96 % of control and the T/C [3] is reported as 96 % of control.
C[Si](C)(C)CCc1ccccc1 was tested, and the T/C [1] was 98 % of control, the T/C [2] was 95 % of control and the T/C [3] was 93 % of control.
Cn1c2ccccc2c(=O)c2c(O)cc3c(c21)C=C(Br)C(C)(C)O3 was tested, and the T/C (dose: 50.0 mg/kg/injection, schedule: Q01DX001 (ip), vehicle: carboxymethylcellulose (CMC)) was 88 % of control, the T/C (dose: 100.0 mg/kg/injection, schedule: Q01DX001 (ip), vehicle: carboxymethylcellulose (CMC)) was 93 % of control and the T/C (dose: 200.0 mg/kg/injection, schedule: Q01DX001 (ip), vehicle: carboxymethylcellulose (CMC)) was 98 % of control. The T/C (dose: 400.0 mg/kg/injection, schedule: Q01DX001 (ip), vehicle: carboxymethylcellulose (CMC)) was 90 % of control.
Nc1ncnc2c1c(-c1ncn[nH]1)cn2C1OC(CO)C(O)C1O (stereo unspecified) was tested, and the T/C (dose: 0.09 mg/kg/injection, schedule: Q01DX009 (ip), vehicle: saline) was 119 % of control, the T/C (dose: 0.19 mg/kg/injection, schedule: Q01DX009 (ip), vehicle: saline) was 119 % of control and the T/C (dose: 0.39 mg/kg/injection, schedule: Q01DX005 (ip), vehicle: saline) was 119 % of control.
For C1=C(N2CCOCC2)CCC(N2CCOCC2)=C1, the T/C (dose: 50.0 mg/kg/injection, schedule: Q01DX009 (ip), vehicle: saline) was 108 % of control, the T/C [4] was 95 % of control and the T/C [5] was 98 % of control. For the same compound, the T/C [6] was 95 % of control and the T/C [7] was 95 % of control.
In the case of COC1OC(CN2CC2)C2OC(C)(C)OC12 (stereo unspecified), the T/C (dose: 75.0 mg/kg/injection, schedule: Q01DX001 (ip), vehicle: carboxymethylcellulose (CMC)) is reported as 102 % of control.
With O=C(NCc1ccccc1)c1ccccc1/C(=N/O)c1ccccc1 the T/C (dose: 200.0 mg/kg/injection, schedule: Q01DX009 (ip), vehicle: saline with Tween-80) was 86 % of control.
In the case of CCC[CH2][Sn]1([CH2]CCC)[O]OC(c2ccccc2)[O]1 (stereo unspecified), the T/C (dose: 0.5 mg/kg/injection, schedule: Q01DX009 (ip), vehicle: saline sonified) is reported as 102 % of control, the T/C (dose: 1.0 mg/kg/injection, schedule: Q01DX009 (ip), vehicle: saline sonified) is reported as 98 % of control and the T/C (dose: 2.0 mg/kg/injection, schedule: Q01DX009 (ip), vehicle: saline sonified) is reported as 104 % of control.
For C[C@@H]1CC[C@@]2(OC1)O[C@H]1C[C@H]3[C@@H]4CC=C5C(C)(C)C(=O)C(O)=C[C@]5(C)[C@H]4CC[C@]3(C)[C@H]1[C@@H]2C, the T/C (dose: 100.0 mg/kg/injection, schedule: Q04DX003 (sc), vehicle: steriod suspending solution) was 98 % of control, the T/C (dose: 200.0 mg/kg/injection, schedule: Q04DX003 (sc), vehicle: steriod suspending solution) was 110 % of control and the T/C (dose: 400.0 mg/kg/injection, schedule: Q04DX003 (sc), vehicle: steriod suspending solution) was 98 % of control.
CC(C)C(N=Cc1cc(Cl)ccc1O)C(=O)O (stereo unspecified) was tested, and the T/C (dose: 100.0 mg/kg/injection, schedule: Q01DX001 (ip), vehicle: steriod suspending solution) was 105 % of control, the T/C (dose: 200.0 mg/kg/injection, schedule: Q01DX001 (ip), vehicle: steriod suspending solution) was 94 % of control and the T/C (dose: 400.0 mg/kg/injection, schedule: Q01DX001 (ip), vehicle: steriod suspending solution) was 104 % of control.
In the case of O=C(Nc1cccc(C(F)(F)F)c1)Nc1cc([N+](=O)[O-])ccc1Cl, the T/C [8] is reported as 96 % of control, the T/C [9] is reported as 97 % of control and 108 % of control and the T/C [10] is reported as 89 % of control. For the same compound, the T/C [11] was 88 % of control.
With CC[N+]12CC=C(CO)C1C(O)CC2 (stereo unspecified) the T/C [8] was 100 % of control, the T/C [9] was 95 % of control and the T/C [10] was 95 % of control.
For O=C1OC(c2ccccc2)=N/C1=C\c1ccc([N+](=O)[O-])cc1, the T/C (dose: 100.0 mg/kg/injection, schedule: Q04DX002 (ip), vehicle: Klucel (hydroxypropylcellulose) (HPC)) was 92 % of control, the T/C (dose: 200.0 mg/kg/injection, schedule: Q04DX002 (ip), vehicle: Klucel (hydroxypropylcellulose) (HPC)) was 89 % of control and the T/C (dose: 400.0 mg/kg/injection, schedule: Q04DX002 (ip), vehicle: Klucel (hydroxypropylcellulose) (HPC)) was 86 % of control.
With O=[N+]([O-])c1ccc2[nH]c(O)c(N=Nc3ccccc3[N+](=O)[O-])c2c1 the T/C [12] was 98 % of control, the T/C (dose: 200.0 mg/kg/injection, schedule: Q01DX001 (ip), vehicle: saline) was 96 % of control and the T/C (dose: 400.0 mg/kg/injection, schedule: Q01DX001 (ip), vehicle: saline) was 105 % of control.
O=C1NC(=O)C(C2CCCCC2)(C2CCCCC2)N1 was tested, and the T/C [4] was 103 % of control, the T/C [1] was 107 % of control and the T/C [6] was 94 % of control. For the same compound, the T/C [2] was 107 % of control, the T/C [13] was 88 % of control and the T/C [3] was 93 % of control.
In the case of Cn1c(SCc2ccccc2)nccc1=O, the T/C [9] is reported as 96 % of control and the T/C [10] is reported as 104 % of control.
For CC1CC=C(N2CCOCC2)CC1 (stereo unspecified), the T/C [9] was 98 % of control, the T/C [10] was 97 % of control and the T/C [11] was 103 % of control.
In the case of Cc1cc(O)c2c(c1)OC(C)(C)C1=C2CC(C)CC1 (stereo unspecified), the T/C (dose: 75.0 mg/kg/injection, schedule: Q01DX009 (ip), vehicle: Klucel (hydroxypropylcellulose) (HPC)) is reported as 96 % of control, the T/C (dose: 150.0 mg/kg/injection, schedule: Q01DX009 (ip), vehicle: Klucel (hydroxypropylcellulose) (HPC)) is reported as 92 % of control and the T/C (dose: 300.0 mg/kg/injection, schedule: Q01DX009 (ip), vehicle: Klucel (hydroxypropylcellulose) (HPC)) is reported as 101 % of control.
With O=S(=O)(O)c1ccc(-c2ccc(S(=O)(=O)O)cc2)cc1 the T/C (dose: 88.8 mg/kg/injection, schedule: Q01DX Z (ip), vehicle: methylcellulose (MC)) was 98 % of control, the T/C (dose: 133.0 mg/kg/injection, schedule: Q01DX Z (ip), vehicle: methylcellulose (MC)) was 90 % of control and the T/C (dose: 200.0 mg/kg/injection, schedule: Q01DX Z (ip), vehicle: methylcellulose (MC)) was 86 % of control.
N#CCc1ccc(Cl)cc1Cl was tested, and the T/C (dose: 12.5 mg/kg/injection, schedule: Q04DX002 (ip), vehicle: Klucel (hydroxypropylcellulose) (HPC)) was 97 % of control, the T/C (dose: 25.0 mg/kg/injection, schedule: Q04DX002 (ip), vehicle: Klucel (hydroxypropylcellulose) (HPC)) was 91 % of control and the T/C (dose: 50.0 mg/kg/injection, schedule: Q04DX002 (ip), vehicle: Klucel (hydroxypropylcellulose) (HPC)) was 87 % of control.
With CC(C)C(C(=O)O)N1C(=O)C2C3CCC(C3)C2C1=O (stereo unspecified) the T/C (dose: 25.0 mg/kg/injection, schedule: Q04DX003 (ip), vehicle: saline) was 86 % of control, the T/C (dose: 50.0 mg/kg/injection, schedule: Q04DX003 (ip), vehicle: saline) was 93 % of control and the T/C [1] was 89 % of control. The T/C [5] was 96 % of control, the T/C [2] was 103 % of control and the T/C [3] was 98 % of control.
With CCCCCCCCCOc1ccc2ccccc2c1 the T/C [1] was 102 % of control, the T/C [2] was 97 % of control and the T/C [3] was 92 % of control.
CC[n+]1ccc(Nc2ccc(NC(=O)c3ccc(C(=O)Nc4ccc(Nc5cc[n+](CC)c(N)n5)cc4)cc3)cc2)nc1N was tested, and the T/C [12] was 190 % of control, the T/C (dose: 133.0 mg/kg/injection, schedule: Q01DX009 (ip), vehicle: saline) was 88 % of control and the T/C (dose: 150.0 mg/kg/injection, schedule: Q01DX001 (ip), vehicle: saline) was 228 % of control. The T/C (dose: 225.0 mg/kg/injection, schedule: Q01DX001 (ip), vehicle: saline) was 203 % of control.
In the case of Nc1cc(S(=O)(=O)O)cc2ccc(S(=O)(=O)O)cc12, the T/C [4] is reported as 102 % of control, the T/C [5] is reported as 111 % of control and the T/C [6] is reported as 96 % of control. For the same compound, the T/C [7] was 101 % of control, the T/C [13] was 102 % of control and the T/C (dose: 400.0 mg/kg/injection, schedule: Q04DX003 (ip), vehicle: saline) was 93 % of control.
